From US20240262917A1, “ANTIBODIES AGAINST ALK AND METHODS OF USE THEREOF” (Dana-Farber Cancer Institute, Inc., priority 2021, published 2024)

Experiments:
ALK ECD cleavage = assay: WB analysis of ALK ECD cleavage in cells treated with MMP inhibitors; format: cell-based; conditions: for levels of the shed ALK ECD fragment in media from treated cells: indicated doses; for ALK ECD cleavage / shed fragment: 2 μM×12 hr.
Excerpt: (§1) (A) WB analysis of ALK expression in lysates and CM of NGP cells treated with the broad-spectrum protease inhibitor GM6001 and the MMP-9/13 inhibitor CAS 204140-01-2, at the indicated doses, for 12 hr. Untreated (U) or DMSO-treated cells were used as controls. The 8G7 N-terminal anti-ALK antibody was used to detect the shed fragment in CM and a C-terminal anti-ALK antibody used for the cell lysates in this and subsequent panels. β-actin is used as a loading control throughout this figure. (B) WB analysis of ALK expression in NGP cells treated with the MMP-9 (CTK8G1150) and MMP-3/12/13 (MMP408) inhibitors (2 μM×12 hr.). (C) WB analysis of ALK expression in the indicated NB cell lines treated with or without CTK8G1150 (2 μM for 12 hr.). (D) WB analysis of MMP-9 and ALK expression in NGP and BE (2)-C NB cells expressing either a control shRNA (shGFP) or two different shRNAs against MMP-9. (E) Crystal violet-stained images of NGP and IMR-5 NB cells treated with CTK8G1150 ([…]) or DMSO for 16 hr. and then subjected to transwell migration assays for 48 hr. (left). Scale bar, 100 μm. Quantification of migration (right) reported as means±SD; ** p<0.01, n=4. See also, FIG. 14.
(A) Immunoblot analyses of ALK expression in NGP cells after shRNA depletion of ADAM17 or ADAM10. Five separate shRNAs for ADAM17 and two shRNAs for ADAM10 were used. GADPH or β-actin were included as internal loading controls in this and subsequent panels. (B) Schematic illustration of the protease predicted to cleave ALK at the identified ECD cleavage site (Asn654-Leu655) generated using PROSPER and CleavPredict software. FIG. 14B discloses SEQ ID NO: 73. (C) WB analysis of ALK expression in the indicated lysates or conditioned media from cells engineered to express WT ALK and treated with or without the MMP-9 inhibitor, CTK8G1150 (2 μM for 12 hr.). Untreated cells or cells treated with DMSO were used as controls. The 8G7 N-terminal anti-ALK antibody was used to detect the shed fragment in conditioned medium (CM) and a C-terminal anti-ALK antibody was used for the cell lysates in this and subsequent panels. (D) WB analysis of ALK expression in NGP cells treated with the indicated concentrations of CTK8G1150 for 12 hr. (E) WB analysis of ALK expression in NGP cells treated with CTK8G1150 (2 μM) for the indicated time periods. (F) WB analysis of ALK following incubation of recombinant MMP-9 to ALK protein purified from 293T cells engineered to express WT or ALK LF655del.
Most receptor tyrosine kinases (RTKs) undergo ECD cleavage by proteases known as sheddases, that include matrix metalloproteinases (MMPs) and A disintegrin and metalloproteinases (ADAMs) (Kreitman et al., 2018). These zinc-dependent, membrane-associated or secreted proteases cleave cell surface transmembrane proteins that play a primary role in the degradation of extracellular matrix proteins, thus affecting multiple biological functions, such as cell signaling, growth factor activation and cytokine release. […] We next determined whether ALK could be cleaved by MMP-9 in vitro (FIG. 14, panel F). […] Finally, to confirm the role of MMP-9 in ALK cleavage, we genetically depleted this protease through shRNA knockdown in two NB cell lines [NGP and BE(2)-C], observing a significant decrease in the 140 kDa product resulting from inhibition of cleavage (FIG. 7, panel D). Depletion of MMP-2, by contrast, led to only a slight decrease in cleavage.
Cell lysates were prepared in NP-40 buffer (Invitrogen) containing complete protease inhibitor (Roche), phosphatase inhibitor (Roche) and phenylmethylsulfonyl fluoride (PMSF). Lysates were incubated on ice for 20 min and centrifuged at 16,000 g for 15 min at 4° C. Protein concentrations of the supernatants were determined with the DC protein assay kit (Bio-Rad). Protein samples were denatured using NuPAGE LDS sample buffer (Invitrogen) and NuPAGE sample reducing agent (Invitrogen). […]

NGP and IMR-5 NB cells = assay: Transwell migration assay after MMP-9 inhibitor treatment; format: cell-based, human; conditions: CTK8G1150 (2 µM) 16 hr., transwell migration 48 hr.
Excerpt: as §1
Cell migration was measured using transwell chambers (Falcon; cell culture inserts with 8 μm pores) and a 24-well plate as the lower chamber. […]

ALK-positive NSCLC = conditions: cited from earlier work
neuroblastoma = conditions: human, in vivo; cited from earlier work

COc1ccc(S(=O)(=O)N2CCN(C(=O)c3ccc(-c4ccccc4)cc3)CC2C(=O)NO)cc1 (centres unmarked) [CAS 204140-01-2]
levels of the shed ALK ECD fragment in media from treated cells (ALK ECD cleavage; NGP cells, 12 hr.): caused a decrease in the levels of the shed ALK ECD fragment

CCN(CC)Cc1cc(C)c(N(Cc2ccccc2)S(=O)(=O)c2ccc(OC)cc2)c(C(=O)NO)c1 [CTK8G1150]
inhibition of ECD cleavage in cells engineered to overexpress WT ALK (ALK ECD cleavage; 293T and NIH3T3 cells, 2 μM for 12 hr.): significant inhibition of ECD cleavage
ECD cleavage in endogenous WT ALK-expressing NB cell lines (ALK ECD cleavage; NGP NB cells and four additional NB cell lines, 2 μM for 12 hr.): inhibited ECD cleavage
period over which ALK ECD cleavage disruption was maintained (ALK ECD cleavage; NGP cells, 2 μM): > 52 h
ALK ECD cleavage / shed fragment (ALK ECD cleavage; NGP cells): produced a marked decrease in the shed fragment
dose dependence of ALK ECD cleavage disruption (ALK ECD cleavage; NGP cells, indicated concentrations, 12 hr.): disrupted in a dose-dependent manner
migration of NB cells that endogenously expressed WT ALK (NGP and IMR-5 NB cells): significantly suppressed the migration

CNC(=O)[C@H](Cc1c[nH]c2ccccc12)NC(=O)[C@@H](CC(=O)NO)CC(C)C [GM6001]
levels of the shed ALK ECD fragment in media from treated cells (ALK ECD cleavage; NGP cells, 12 hr.): caused a decrease in the levels of the shed ALK ECD fragment

COC(=O)Nc1ccc2oc3cc(S(=O)(=O)N[C@@H](C(=O)O)C(C)C)ccc3c2c1 [MMP408]
ALK ECD cleavage / shed fragment (ALK ECD cleavage; NGP cells): did not affect cleavage

Cc1cc(Nc2ncc(Cl)c(Nc3ccccc3S(=O)(=O)C(C)C)n2)c(OC(C)C)cc1C1CCNCC1 [ceritinib]
median duration of response (ALK-positive NSCLC): 16.6 months

C[C@@H](Oc1cc(-c2cnn(C3CCNCC3)c2)cnc1N)c1c(Cl)ccc(F)c1Cl [crizotinib]
durability of responses in neuroblastoma patients (neuroblastoma): has not shown durable responses
